Data on 22 molecules can be found in US8354526B2, “Pyrido [4, 3-D] pyrimidinone derivatives as kinase inhibitors” (IRM LLC, priority 2008, dated 2013).

For experiment [1], the target named is T1, hSyk (full length) (Homo sapiens, UniProt P43405).
T1 construct: Purified recombinant hSyk (full length)
Kind of experiment: Inhibition of enzymatic Syk kinase activity (HTRF). Type of experiment: biochemical. The procedure:
(§1) Purified recombinant hSyk (full length) and Zap70 (kinase domain) diluted in assay buffer are dispensed in 384 well proxi-plates. […] 50 nL of diluted compounds are added to the enzyme solutions and incubated for […] at room temperature, after which ATP and biotynilated peptide substrate are added. Substrate phosphorylation is a function of the HTRF signal measured following the addition of Cisbio-HTRF reagents.
A general note: Time-resolved FRET reads energy transfer from a long-lived donor to a nearby acceptor.

The target in experiment [2] is T2, Zap70 (kinase domain) (Homo sapiens, UniProt P43403).
T2 construct: Zap70 (kinase domain)
T2 sequence (P43403 338-600 limits assumed): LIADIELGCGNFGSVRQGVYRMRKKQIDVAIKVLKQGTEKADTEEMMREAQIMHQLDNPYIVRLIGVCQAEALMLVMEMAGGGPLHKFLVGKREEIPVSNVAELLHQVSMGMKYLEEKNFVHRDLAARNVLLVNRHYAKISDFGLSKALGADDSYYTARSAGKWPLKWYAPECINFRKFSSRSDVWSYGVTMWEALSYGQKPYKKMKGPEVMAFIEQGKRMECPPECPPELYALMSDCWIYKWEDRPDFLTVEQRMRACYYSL
Kind of experiment: Inhibition of enzymatic Zap70 kinase activity (HTRF). The experiment is classed as biochemical. The procedure:
as §1

Experiment [3] deals with T3, BaF3/Tel-Syk (Homo sapiens, UniProt P43405).
T3 construct: fused on or other part: Dimerization domain of Tel (ETV6), fused to Syk; it is part of the key as ETV6; The host cells also express luciferase, which serves only as the read-out; P41212 (Transcription factor ETV6)
Kind of experiment: BaF3/Tel-Syk cellular proliferation assay. The experiment is classed as cell-based, murine. To be noted: read-out: IC50 in BaF3/Tel-Syk cellular assay.
Protocol: (§2) Cells are maintained in RPMI/10% fetal calf serum (RPMI/FCS) supplemented with penicillin 50 μg/mL, streptomycin 50 μg/mL and L-glutamine 200 mM. Untransformed Ba/F3 cells are similarly maintained with the addition of murine recombinant IL3. Cells are dispensed into 384-well format plate at 5000 cell/well in 50 μL of culture medium. Compounds of the invention are dissolved and diluted in dimethylsufoxide (DMSO). Twelve points 1:3 serial dilutions are made into DMSO to create concentrations gradient ranging from 10 mM to 0.05 μM. Cells are added with 50 nL of diluted compounds and incubated for 48 hours in cell culture incubator. Luminiscent signal is measured following the addition of Bright Glo® (Promega) luciferase substrate. IC50 values are calculated by linear regression analysis of the percentage inhibition of each compound at 12 concentrations.

Experiment [4] has as its target T4, BaF3/Tel-KDR (Homo sapiens, UniProt P35968).
T4 construct: fused on or other part: Dimerization domain of Tel (ETV6), fused to KDR; it is part of the key as ETV6; The host cells also express luciferase, which serves only as the read-out; P41212 (Transcription factor ETV6)
In words: BaF3/Tel-KDR cellular proliferation assay. As to conditions: read-out: IC50 in BaF3/Tel-KDR cellular assay. Type of experiment: cell-based, murine.
Protocol: as §2

Experiment [5] deals with T5, BaF3/Tel-FMS (Homo sapiens, UniProt P07333).
T5 construct: fused on or other part: Dimerizing part of Tel (ETV6), fused to FMS; it is part of the key as ETV6; P41212 (Transcription factor ETV6)
T5 sequence (P07333 582-910 limits assumed): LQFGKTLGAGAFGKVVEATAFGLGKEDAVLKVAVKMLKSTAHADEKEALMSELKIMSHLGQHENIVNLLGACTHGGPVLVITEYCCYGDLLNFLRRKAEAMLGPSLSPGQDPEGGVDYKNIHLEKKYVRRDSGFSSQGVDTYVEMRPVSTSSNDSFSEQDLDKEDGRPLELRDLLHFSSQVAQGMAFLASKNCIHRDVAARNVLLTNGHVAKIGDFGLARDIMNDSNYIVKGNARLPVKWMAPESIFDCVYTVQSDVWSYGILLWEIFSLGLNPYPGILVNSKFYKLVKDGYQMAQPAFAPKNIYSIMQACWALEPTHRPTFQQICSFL
Kind of experiment: BaF3/Tel-FMS cellular proliferation assay. Type of experiment: cell-based, murine. To be noted: read-out: IC50 in BaF3/Tel-FMS cellular assay.
Protocol: (§3) Compounds of the invention are tested for their antiproliferative effect on Ba/F3 cells expressing either Tel-TrkA, Tel-TrkB or Tel-TrkC and an additional panel of 34 selected diverse kinases activated by fusion to the dimerizing partners Bcr or Tel (Abl, AlK, BMX, EphA3, EphB2, FGFR2, FGFR3, FGFR4, FGR, FLT1, FLT3, FLT4, FMS, IGF1R, InsR, JAK1, JAK2, JAK3, KDR, Kit, Lck, Lyn, MER, MET, PDGFRb, RET, RON, Ros-1, Src, Syk, TIE2, TYK2, Tie1, ZAP70). The antiproliferative effect of these compounds on the different cell lines and on the non transformed cells were tested at 12 different concentrations of 3-fold serially diluted compounds in 384 well plates as described above (in media lacking IL3). The IC50 values of the compounds the different cell lines were determined from the dose response curves obtained as describe above.

Experiment [6] has as its target T6, BaF3/Tel-KIT (Homo sapiens, UniProt P10721).
T6 construct: fused on or other part: Dimerizing part of Tel (ETV6), fused to c-Kit; P41212 (Transcription factor ETV6)
Kind of experiment: BaF3/Tel-KIT cellular proliferation assay. The experiment is classed as cell-based, murine. As to conditions: read-out: IC50 in BaF3/Tel-KIT cellular assay.
Protocol: as §3
Compounds were tested for their ability to inhibit the proliferation of wt Ba/F3 cells and Ba/F3 cells transformed with Tel c-Kit fused tyrosine kinases. Untransformed Ba/F3 cells are maintained in media containing recombinant IL3. Cells are plated into 384 well TC plates at 5,000 cells in 50 ul media per well and test compound at 0.06 nM to 10 μM is added. […] After incubating the cells, 25 μL of BRIGHT GLO® (Promega) is added to each well following manufacturer's instructions and the plates are read using Analyst GT—Luminescence mode—50000 integration time in RLU.

Where [7] appears, read: IC50 for Syk inhibition, Table 2, read-out: Syk HTRF.

Read-outs that look alike come from different tables or passages of the source.

T4 sequence (P35968 834-1162 limits assumed, change not shown): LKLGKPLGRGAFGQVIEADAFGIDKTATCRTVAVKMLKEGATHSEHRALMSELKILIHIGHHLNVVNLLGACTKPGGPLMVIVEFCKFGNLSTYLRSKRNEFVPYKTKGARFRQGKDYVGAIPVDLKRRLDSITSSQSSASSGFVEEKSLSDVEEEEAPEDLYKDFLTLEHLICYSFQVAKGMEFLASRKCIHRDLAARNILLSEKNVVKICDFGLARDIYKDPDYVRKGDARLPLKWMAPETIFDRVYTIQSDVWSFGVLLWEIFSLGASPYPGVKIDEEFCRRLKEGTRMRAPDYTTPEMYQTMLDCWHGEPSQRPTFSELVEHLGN
T6 sequence (P10721 589-937 limits assumed, change not shown): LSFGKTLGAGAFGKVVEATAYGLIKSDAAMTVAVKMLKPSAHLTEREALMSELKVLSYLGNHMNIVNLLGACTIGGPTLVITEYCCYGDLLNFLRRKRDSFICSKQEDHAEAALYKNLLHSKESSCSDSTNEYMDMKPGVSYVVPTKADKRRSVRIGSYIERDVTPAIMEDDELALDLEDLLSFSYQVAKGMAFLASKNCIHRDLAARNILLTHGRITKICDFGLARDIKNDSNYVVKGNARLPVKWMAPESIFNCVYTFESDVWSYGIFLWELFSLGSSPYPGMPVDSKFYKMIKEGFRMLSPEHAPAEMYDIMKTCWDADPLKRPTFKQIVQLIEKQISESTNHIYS

For the molecule `O=c1[nH]cnc2cc(-c3ccccc3)nc(Nc3ccc(N4CCOCC4)cc3)c12` [Example 4a, 5-(4-morpholinophenylamino)-7-phenylpyrido[4,3-d]pyrimidin-4(3H)-one], the IC50 worked out at 90 nM in experiment [1] (read-out: IC50 in Syk enzymatic assay) and 38000 nM in experiment [2]. Further, the GI50 in experiment [3] was determined as 160 nM; in experiment [4], 1860 nM; in experiment [5], 7 nM; in experiment [6] it was 30 nM.

Take `CC(C)Nc1nc(-c2ccc(C(C)(C)O)nc2)cc2ncn(C)c(=O)c12` [Example 6]: the IC50 in experiment [1] (setting [7]) came out at 190 nM.

In the case of `NCCCNc1cc2nc[nH]c(=O)c2c(Nc2ccc(N3CCOCC3)cc2)n1` [Example 13], the IC50 in experiment [1] (setting [7]) is 5.66 nM.

For `O=c1[nH]cnc2cc(NCc3ccncc3)nc(Nc3ccc(N4CCOCC4)cc3)c12` [Example 25], in experiment [1] (setting [7]), the IC50 turned out to be 61 nM.

Turning to `COc1ccc(-c2cc3ncn(C)c(=O)c3c(NCc3ccncc3)n2)cc1OC` [Example 114], the IC50 in experiment [1] (setting [7]) is 40 nM.

As to `CNc1cc(CNc2nc(-c3ccc(OC)c(OC)c3)cc3ncn(C)c(=O)c23)ccn1` [Example 183], the IC50 in experiment [1] (setting [7]) was determined as 126 nM.

As for `COc1ccc(-c2cc3ncn(C)c(=O)c3c(NCCc3ccccn3)n2)cc1OC` [Example 189], the IC50 in experiment [1] (setting [7]) turned out to be 258 nM.

With `COc1cc(-c2cc3ncn(C)c(=O)c3c(NCc3ccncc3)n2)ccc1N` [Example 194], the IC50 in experiment [1] (setting [7]) worked out at 104 nM.

For `O=c1[nH]cnc2cc(-c3cc(Cl)ccc3Cl)nc(Nc3ccc(N4CCOCC4)cc3)c12` [Example 254], the IC50 in experiment [1] (setting [7]) came to 1120 nM.

For the molecule `COCCOc1cc(-c2cc3ncn(C)c(=O)c3c(NCC(F)F)n2)ccc1OC` [Example 270], in experiment [1] (setting [7]), the IC50 was 139 nM.

As for `Cn1cnc2cc(-c3ccc4c(c3)NC(=O)C(C)(C)O4)nc(NCC(F)F)c2c1=O` [Example 273], the IC50 in experiment [1] (setting [7]) worked out at 198 nM.

With `Cn1cnc2cc(-c3ccc4c(c3)NC(=O)C4)nc(NCc3ccnc(N)c3)c2c1=O` [Example 278], the IC50 in experiment [1] (setting [7]) worked out at 84.3 nM.

With `O=c1[nH]cnc2cc(N3CCS(=O)(=O)CC3)nc(Nc3ccc(N4CCOCC4)nc3)c12` [Example 305], the IC50 in experiment [1] (setting [7]) is 823 nM.

As for `CN1CCC(c2ccc(Nc3nc(N4CCC(N5CCCCC5)CC4)cc4nc[nH]c(=O)c34)cc2)CC1` [Example 313], the IC50 in experiment [1] (setting [7]) is 42.7 nM.

With `CC(C)Nc1nc(-c2cnn(C)c2)cc2ncn(C)c(=O)c12` [Example 317], the IC50 in experiment [1] (setting [7]) was determined as 126 nM.

For the molecule `CC(C)Nc1nc(-c2cnc3[nH]ccc3c2)cc2ncn(C)c(=O)c12` [Example 324], in experiment [1] (setting [7]), the IC50 is 340 nM.

Regarding `Cn1cnc2cc(-c3cccc(S(C)(=O)=O)c3)nc(NC3CC3)c2c1=O` [Example 349], in experiment [1] (setting [7]), the IC50 is 375 nM.

For `CNc1nc(-c2ccc(C(C)(C)O)nc2)cc2ncn(C)c(=O)c12` [Example 352], the IC50 in experiment [1] (setting [7]) is 376 nM.

Regarding `COc1cc(-c2cc3ncn(C)c(=O)c3c(NCC(F)F)n2)ccc1OCCCN1CCOCC1` [Example 366], in experiment [1] (setting [7]), the IC50 amounted to 113 nM.

Regarding `COc1cc(-c2cc3ncn(C)c(=O)c3c(NC[C@H](C)O)n2)ccc1OCCCN1CCOCC1` [Example 372], the IC50 in experiment [1] (setting [7]) stood at 114 nM.

For `CNS(=O)(=O)c1cc(-c2cc3ncn(C)c(=O)c3c(NC3CCC3)n2)ccc1OC` [Example 415], the IC50 in experiment [1] (setting [7]) was found to be 131 nM.

`COc1ccc(-c2cc3ncn(C)c(=O)c3c(Nc3ccc4cn[nH]c4c3)n2)cc1OC` [Example 418]: the IC50 in experiment [1] (setting [7]) is 531 nM.
